We go through 3 compounds from patent US8748375B2 (Amylin Pharmaceuticals, LLC, priority 2009, dated 2014).

The nature of series [1]: adsorption onto glass in liquid form. Particulars: glass container. It counts as physicochemical. The text has this: These formulations may then be lyophilized. Surfactants can cause denaturation of protein, both of hydrophobic disruption and by salt bridge separation. Relatively low concentrations of surfactant may exert a potent denaturing activity, because of the strong interactions between surfactant moieties and the reactive sites on proteins. However, judicious use of this interaction can stabilize proteins against interfacial or surface denaturation. Surfactants which could further stabilize the peptide may optionally be present in the range of about 0.001 to 0.3% (w/v) of the total formulation and include polysorbate 80 (i.e., polyoxyethylene(20) sorbitan monooleate), CHAPS® (i.e., 3-[(3-cholamidopropyl) dimethylammonio] 1-propanesulfonate), Brij® (e.g., Brij 35, which is (polyoxyethylene (23) lauryl ether), poloxamer, or another non-ionic surfactant.

Series [2] has as its system insulin-stimulated glycogen synthesis in soleus muscle. In words: Soleus Muscle Assay. It counts as cell-based, rat. How it is done: Concentrations of peptide dissolved in carrier-free buffers are determined by quantitative amino acid analysis, as described therein. The ability of compounds to act as agonists in this assay is determined by measuring EC50 values. […] Similar results were obtained with other agonist compounds listed above.

For series [3] the following is noted: pramlintide 180 mcg TID, 1 day of treatment; cited from earlier work.
For series [4], the system named is DIO Levin rats. In words: Example 5: amylin versus pramlintide. It counts as in vivo, rat. Particulars: 76 nmol/kg/day, osmotic mini-pump, 24 days. The procedure: 48 DIO Levin rats (an in-bred model of diet induced obesity) were used in this study. […] Food intake and body weight was measured daily. […] The pair-fed groups were only allowed to consume the daily intakes of their respective drug-treated groups. For body composition, rats were scanned in a rodent NMR before treatment and after sacrifice (at the end of the study), allowing for the ability to calculate changes in carcass fat and protein (e.g., lean tissue).

The subject of series [5] is high fat-fed rats. In words: Example 2: three doses of amylin, food intake and body weight. It counts as in vivo, rat. From the text: (§1) Low fat-fed rats (11% kcal from fat, D12329, Research Diets) were also implanted with pumps delivering vehicle. Food intake and body weight measurements were obtained weekly.
Series [6] has as its system DIO (Levin) male rats. In words: Example 3: chronic amylin infusion, DIO rats. Further details: Ash: dose or concentration left out as unconfirmed. It counts as in vivo, rat. The procedure: (§2) Lean, male Harlan SPRAGUE DAWLEY® (HSD) (Harlan 7012) rats were maintained on “standard chow” (˜5% calories from fat).
(§3) Food intake and body weight were recorded daily (FIGS. 5, 6A, 6B, 7, 8A, and 8B).
(§4) On the final day of the experiment, rats were deeply anaesthetized and sacrificed by cardiac puncture. Plasma triglycerides, glucose, and cholesterol were measured on a COBAS Mira plasma Analyzer (Roche). Plasma leptin and insulin were measured using Linco Research kits. (See, FIGS. 9A-9F and 10A-10E.) Body composition was measured by chemical analysis (Covance Laboratories, Madison, Wis.). Fat pad weights of the epididymal, retroperitoneal, subcutaneous, and perirenal fat pads (all unilateral; analysis only done in DIO animals) were carefully dissected and weighed (FIGS. 12A-12D). In analyzing the tissue biochemistry, […] were powdered under liquid N2 and extracted in chloroform:methanol. 0.6% NaCl solution was then added and the tubes were vortexed, centrifuged, and the organic phase was transferred to glass scintillation vials and dried under a stream of N2. Dried lipids were resuspended and triglycerides were quantified by enzymatic assay (Pointe Scientific, Inc.). Tissue glycogen was measured by the amyloglucosidase method. (See FIGS. 11A-11D.)
(§5) All data are represented as mean±SEM. Analysis of variance (ANOVA) and Bonferroni post-hoc tests were used to test for group differences (SYSTAT® for Windows). A P-value<0.05 was considered significant. Graphs were generated using PRISM® 4 for Windows (Graphpad Software).

For series [7], the system named is Retired female breeder rats on high fat diet. Kind of series: Example 4: amylin with prior or concurrent food restriction. It counts as in vivo, rat. Particulars: for Estimated Mean Weight change from treatment: amylin 100 μg/kg/day. From the text:
Retired female breeder rats were maintained on a high fat diet (40% fat) for 8 weeks. Prior to drug treatment, rats were either ad-lib fed or food restricted to 95% of their starting body weight.

Series [8] relates to High fat-fed male SPRAGUE-DAWLEY rats (DIO). In words: Example 1: chronic infusion, food consumption, body weight, body composition. As to conditions: obesity-prone rats, vs vehicle control. It counts as in vivo, rat. The procedure:
as §1
Rats were sacrificed by cardiac puncture under anesthesia. Triglyceride levels were measured on a COBAS Mira plasma analyzer (Roche), and leptin and insulin were assayed according to Linco Research rat RIA kits. Body composition was measured by chemical analysis (Covance Laboratories, Madison, Wis.).
All data are represented as mean±SEM. Analysis of variance was used to test for group differences.
The rats were fattened for 10 weeks prior to drug treatment. The high fat-fed rats were designated as obesity-prone (top 50% of weight gainers) or obesity-resistant (bottom 50%) based on the amount of weight gained through week 7.

The subject of series [9] is Lean, male Harlan SPRAGUE DAWLEY (HSD) rats. In words: Example 3: chronic amylin infusion, lean rats. Set-up: Fat: dose or concentration left out as unconfirmed. It counts as in vivo, rat. How it is done:
as §2, §3, §4, §5

The conditions of series [10]: in vivo; cited from earlier work.
Where [11] appears, read: DIO rats, amylin 300 mg/kg/day, 28-day pump.
[12] abbreviates: amylin 300 mg/kg/day, 28-day pump.

Marks after values point to notes of the source that are not given here.

For `CC[C@H](C)[C@H](NC(=O)[C@@H]1CCCN1C(=O)CNC(=O)[C@H](Cc1ccccc1)NC(=O)[C@H](CC(N)=O)NC(=O)[C@H](CC(N)=O)NC(=O)[C@H](CO)NC(=O)[C@H](CO)NC(=O)[C@H](Cc1c[nH]cn1)NC(=O)[C@@H](NC(=O)[C@H](CC(C)C)NC(=O)[C@H](Cc1ccccc1)NC(=O)[C@H](CC(N)=O)NC(=O)[C@H](C)NC(=O)[C@H](CC(C)C)NC(=O)[C@H](CCCNC(=N)N)NC(=O)[C@H](CCC(N)=O)NC(=O)[C@@H](NC(=O)[C@H](C)NC(=O)[C@@H]1CSSC[C@H](NC(=O)[C@@H](N)CCCCN)C(=O)N[C@@H](CC(N)=O)C(=O)N[C@@H]([C@@H](C)O)C(=O)N[C@@H](C)C(=O)N[C@@H]([C@@H](C)O)C(=O)N1)[C@@H](C)O)C(C)C)C(=O)N[C@@H](CC(C)C)C(=O)N1CCC[C@H]1C(=O)N1CCC[C@H]1C(=O)N[C@H](C(=O)N[C@@H](CC(N)=O)C(=O)N[C@H](C(=O)NCC(=O)N[C@@H](CO)C(=O)N[C@@H](CC(N)=O)C(=O)N[C@H](C(=O)N[C@@H](Cc1ccc(O)cc1)C(N)=O)[C@@H](C)O)C(C)C)[C@@H](C)O` [^25, 28, 29Pro-h-Amylin], the “tendency to adsorb onto glass” value in series [1] was “does not have a tendency to adsorb onto the glass”. For the same compound, in [2], the “amylin agonist activity (in words)” value was “act as amylin agonists” and the “antagonist activity in soleus muscle assay (in words)” value is recorded as “negligible antagonist activity”. For the same compound, the “reduction in mean daily caloric intake” value in series [3] was roughly 19%. Besides, in [4], the body composition entry was “favorable effects on body composition” and the body weight gain entry is given as “significant effect on slowing body weight gain”.

With “amylin: Amylin synthesized by Amylin Pharmaceuticals, Inc. by solid-phase chemistry; species not stated in the examples (KCNTATCATQRLANFLVHSSNNFGAILSSTNVGSNTY; Islet amyloid polypeptide; UniProt P10997 34-70, looked up)”, the body weight gain entry is reported as “reduction in body weight gain” in series [5] (30 μg/kg/day) and “significant effect on slowing body weight gain” in series [4]. In addition, the “effects on food intake and body weight” value in [5] (30, 100, 300 μg/kg/day) was “dose-dependent”. Moreover, the percent body fat entry in series [6] (DIO rats) is “significant decrease in percent body fat”; in [9] (relative to pair-fed) it was “lower percent body fat relative to pair-fed”. Moreover, the percent protein entry in series [6] (DIO rats) is “significant preservation or gain in percent protein”. Further, the “weight gain compared to vehicle rats” value in series [6] (DIO rats) and in series [9] was “significant reduction in weight gain” each time. Besides, the Ash in series [6] (DIO rats, 28-day pump) is reported as 1.65 ± 0.34%. Moreover, the Fat in series [6] (setting [11]) worked out at 24.3 ± 6.5 %; in series [9] (amylin, 28-day pump), 7.2 ± 1.5 %. In addition, the Moisture in series [6] (setting [11]) turned out to be 56.68 ± 4.4 %; in [9] (setting [12]) it was 67.57 ± 0.7 %. The results for the Protein in [6] (setting [11]) and in [9] (setting [12]) were 18.09 ± 1.68 % and 20.67 ± 0.74%, respectively. In addition, the Weight in series [6] (setting [11]) is on record as 548.94* g; in [9] (setting [12]) it was 392.25* g. The muscle glycogen content result in [6] (rat, in vivo) is reported as “significantly reduced muscle glycogen content”. In addition, the “Estimated Mean Weight change from treatment” value in series [7] (Ad-lib prior, Ad-lib during) was -21.8 ± 1.4 g; in series [7] (Ad-lib prior, Restricted during), -23.1 ± 2.3 g; in [7] (Restricted prior, Ad-lib during), -18.2 ± 2.5 g; in [7] (Restricted prior, Restricted during) it was -17.1 ± 2.0 g. In addition, the body weight entry in series [7] (all treatment conditions) is on record as “significantly reduced body weight under all treatment conditions”. The food intake entry in series [7] (vs vehicle treated counterparts) was “ate less than their vehicle treated counterparts”. In addition, the “protein (body composition)” value in [8] is given as “increase in protein”. Also, the “effect on food intake tapers off after” value in [10] is 60 min. Moreover, the “onset of effect on food intake” value in series [10] is no more than 30 min. Besides, the body composition result in series [4] was “favorable effects on body composition”.

For the compound “CSNLSTCVLGKLSQELHKLQTYPRTNTGSGTP [salmon calcitonin]”, in series [10], the “delayed effect, peak levels still maintained at” value was 240 min.
